{
  "source": "paper PMC3180999",
  "about": "(Journal of medicinal chemistry, 2010)",
  "key": {"AR": {"test_system": "AR", "conditions": "cited from earlier work"}, "[1]": {"test_system": "LNCaP (hormone sensitive) cells", "assay": "PSA expression readout in normal LNCaP", "type": "cell-based"}, "PSA secretion": {"test_system": "PSA secretion", "assay": "relative PSA level / PSA secretion assay, cell line not named", "type": "cell-based", "conditions": "vs bicalutamide and 27 as standards, Scheme 9"}, "LAPC4/AR cells": {"test_system": "LAPC4/AR cells", "assay": "LAPC4/AR xenograft in castrate SCID mice", "type": "in vivo"}, "[2]": {"assay": "pharmacokinetics: serum concentration, steady state concentration"}, "LNCaP/AR cells [3]": {"test_system": "LNCaP/AR cells", "assay": "PSA expression readout in LNCaP/AR", "type": "cell-based", "conditions": "Schemes 18 and 19"}, "LNCaP/AR cells [4]": {"test_system": "LNCaP/AR cells", "assay": "LNCaP/AR xenograft in castrate SCID mice", "type": "in vivo"}, "[5]": {"conditions": "serum concentration after IV injection, Figure 3"}, "[6]": {"conditions": "oral, 0.1, 1 and 10 mg/kg once a day, Figure 7"}},
  "data": [
    {"molecule": "C[C@]1(O)CC[C@H]2[C@@H]3CCC4=CC(=O)CCC4=C3C=C[C@@]21C", "note": "[R1881]", "values": [
      {"measurement": "affinity for the AR", "setting": "AR", "value": "slightly higher than that of the natural ligand dihydrotestosterone"}
    ]},
    {"molecule": "CC1(C)C(=O)N(c2ccc(C#N)c(C(F)(F)F)c2)C(=S)N1CCCCO", "note": "[RU59063]", "values": [
      {"measurement": "affinity for the AR", "setting": "AR", "value": "nearly equal to that of the well known steroidal agonist R1881"}
    ]},
    {"molecule": "CC1(C)C(=O)N(c2ccc(C#N)c(C(F)(F)F)c2)C(=S)N1c1ccc(N=[N+]=[N-])cc1", "note": "[compound 25, 4-[3-(4-Azidophenyl)-4,4-dimethyl-5-oxo-2-thioxoimidazolidin-1-yl]-2-trifluoromethylbenzonitrile]", "values": [
      {"measurement": "relative PSA level vs vehicle (DMSO)", "setting": "[1]; bicalutamide as standard, Scheme 6", "value": "the best of this group"}
    ]},
    {"molecule": "Cc1ccc(N2C(=S)N(c3ccc(C#N)c(C(F)(F)F)c3)C(=O)C23CCC3)cc1", "note": "[compound 38, 4-(8-Oxo-6-thioxo-5-(4-methylphenyl)-5,7-diazaspiro[3.4]oct-7-yl)-2-trifluoromethylbenzonitrile]", "values": [
      {"measurement": "relative PSA expression levels", "setting": "PSA secretion", "value": "comparable to the dimethyl analogue 27"},
      {"measurement": "fold change in tumor volume of xenografts", "setting": "LAPC4/AR cells; 10 mg/kg, pilot experiment, Figure 1", "value": "slightly superior"},
      {"measurement": "dose response in change in tumor volume of xenografts", "setting": "LAPC4/AR cells; castration-resistant xenograft assay, model not named at the place, Figure 2", "value": "good dose response"},
      {"measurement": "clearance", "setting": "[2]; [5]", "value": "very rapid clearance"},
      {"measurement": "half-life", "setting": "[2]; [5]", "value": "short half-life"}
    ]},
    {"molecule": "CNC(=O)c1ccc(N2C(=S)N(c3ccc(C#N)c(C(F)(F)F)c3)C(=O)C23CCC3)cc1F", "note": "[compound 91, N-Methyl-4-[7-(4-cyano-3-trifluoromethylphenyl)-8-oxo-6-thioxo-5,7-diazaspiro-[3.4]oct-5-yl]-2-fluorobenzamide]", "values": [
      {"measurement": "effect on hormone sensitive LNCaP cells (PSA)", "setting": "[1]; 10% FBS, harvest on day 6 and day 10, Scheme 20", "value": "good activity"},
      {"measurement": "activity in the hormone refractory LNCaP/AR assay", "setting": "LNCaP/AR cells [3]", "value": "excellent activity"},
      {"measurement": "activity on xenografts over an extended period", "setting": "LNCaP/AR cells [4]; 10 mg/kg/day, 31 days, Figure 8", "value": "retains activity"},
      {"measurement": "effect on LNCaP/AR (HR) tumor size", "setting": "LNCaP/AR cells [4]; 10 and 50 mg/kg once a day, vs bicalutamide at the same dose, Figure 6", "value": "very active"},
      {"measurement": "dose required in dose response of tumor volume change", "setting": "LNCaP/AR cells [4]; [6]", "value": "at least 1 mg/kg/day"},
      {"measurement": "optimal dose in dose response of tumor volume change", "setting": "LNCaP/AR cells [4]; [6]", "value": 10, "unit": "mg/kg/day"},
      {"measurement": "pharmacokinetic (PK) profile", "setting": "[2]; mouse, in vivo", "value": "superb pharmacokinetic (PK) profile"}
    ]}
  ]
}
